Measured values as given in PMC10889512, “Pyrimidine Schiff Bases: Synthesis, Structural Characterization and Recent Studies on Biological Activities” (International Journal of Molecular Sciences, 2024).

Columns and labels:
[1] = system: A. baumannii 19606; experiment: Antimicrobial activity assay, microdilution; format: cell-based, Acinetobacter baumannii; conditions: concentration range from 0.5 µg/mL to 256 µg/mL
Method: (§1) In vitro antimicrobial and antifungal activity was screened using microdilution and modified Richard’s medium. The assay was performed for compounds 4a, 4b, 4c, and 4d with seven reference microbial strains from ATTC (E. coli 25922, S. aureus 43300, K. pneumoniae 700603, A. baumannii 19606, P. aeruginosa 27853, E. faecalis 29212, and C. albicans 10231).
(§2) Seven reference strains from the ATCC collection (Escherichia coli 25922, Staphylococcus aureus 43300, Klebsiella pneumoniae 13883, Acinetobacter baumannii 19606, Pseudomonas aeruginosa 27853, Enterococcus faecalis 29212, and Candida albicans 10231) were used. The assay was performed according to a modified version of Richard et al.’s protocol and ISO standards 20776-1:2019 and 16256:2021 [78, 79]. Microdilution with spectrophotometric measurement was used to calculate MIC50 (minimal inhibitory concentration which decreased the microorganisms’ viability to 50%) values. Briefly, compounds were prepared 100× concentrated in DMSO, and during the whole experiment, they were diluted to 1× with TSB. Serial dilutions of tested compounds were made directly on plates at a concentration range of 0.5 to 256 µg/mL. Microorganisms were incubated for 24 h at 37 °C (bacteria) or 25 °C (yeast) on Petri dishes with TSA. The bacteria/yeast suspensions were prepared at a density 5 × 10^5 CFU/mL (for bacteria) or 0.5–2.5 × 10^5 CFU/mL (for yeast) with TSB. Also, appropriate controls were contained in the experiment: the positive control consisted of a specific strain in TSB, and the negative control was TSB alone. To ensure that used strains were not modified and were still responding to antibacterial/antifungal compounds established by EUCAST, additional tests were conducted with levofloxacin, gentamicin, and amphotericin B. Microplates were incubated on a shaker for 24 h at 37 ± 1 °C or 25 ± 1 °C for the bacteria and yeast strains, respectively. After the incubation, spectrophotometric measurement was performed at 580 nm. MIC50 was calculated by comparing the results obtained for experimental sets with positive controls. Next, 50 µL aliquots of 1% (m/v) TTC solution were added to each well. The plates were incubated on the shaker for 24 h at 37/25 °C. In living microbial cells, colourless TTC is converted into red formazan crystals, which allows for visual observation and MBC/MFC (minimal bactericidal/fungicidal concentration) value assessment.

[2] = system: K. pneumoniae 700603; experiment: Antimicrobial activity assay, microdilution; format: cell-based, Klebsiella pneumoniae; conditions: concentration range from 0.5 µg/mL to 256 µg/mL
Method: as §1, §2

[3] = system: A172 cells; experiment: Flow cytometry FDA/PI staining, cell viability, A172; format: cell-based, human
Method: A detailed analysis of potential cytotoxic mechanisms has been performed only for the selected compound (4b) where the IC50 values under 100 µM were detected in the screening NR assay. Flow cytometry was performed on the A172 and AGS cell lines. Cells were incubated with compound 4b at IC50 for 24, 48, and 72 h before analysis. Fluorescein diacetate (FDA) and propidium iodide (PI) were used as indicators for viable and nonviable (necrotic) cells. Most of the events were captured in the first and the fourth quadrant, which represent viable and necrotic cells, respectively. […] Similar results were obtained for the AGS cell line (Figure 8B), where the viability was 60.95%/55.10%/44.99% after the same incubation periods, respectively. Some events occurred in the second quadrant, but it was difficult to unequivocally categorize them into viable or nonviable (apoptotic/necrotic) cell populations, and thus more sensitive dyes, able to distinguish between the types of cell death, were needed.
Two approaches for flow cytometry were used—FDA/PI staining to determine cell viability and annexin V/PI staining for cell death pathway determination.
For cell viability determination, cells were plated in 6-well plates at a density of 1 × 10^5 cells/well and incubated for 24 h at 37 °C, 5% CO2 and in a humidified atmosphere. Next, cells were treated with 4b at a concentration calculated as IC50 in neutral red uptake assay. After 24, 48, and 72 h incubation, the cells (either adhered or floating) were collected, centrifuged at 1600 rpm, and washed with PBS. FDA and PI stock solution at a 1 mM concentration were prepared in DMSO and H2O, respectively. After centrifugation and supernatant discarding, cells were stained with FDA at a final concentration of 1 µM prepared in PBS and incubated in the dark. After 15 min, they were centrifuged at 1600 rpm, resuspended in ice-cold PBS, and placed on ice. Samples were stained with 1 µM PI for 2 min before the cytometry evaluation. […]

Structure (SMILES): Cc1nc(-c2ccccc2)nc(Nc2ccc(F)cc2)c1C=Nc1cccc(Cl)c1 [compound 4b, 5-{[(3-chlorophenyl)imino]methyl}-N-(4-fluorophenyl)-6-methyl-2-phenylpyrimidin-4-amine]
- MIC and MBC/MFC activity [1]: Neither MIC nor MBC/MFC activity was observed
- MIC and MBC/MFC activity [2]: Neither MIC nor MBC/MFC activity was observed
- Q1 events (viable cells; viability), FDA/PI ([3]; A172, at IC50, 24 h): 59.32%
- Q1 events (viable cells; viability), FDA/PI ([3]; A172, at IC50, 48 h): 50.98%
- Q1 events (viable cells; viability), FDA/PI ([3]; A172, at IC50, 72 h): 43.88%
